In the assay the test system is human recombinant TG2 binding to FN and its 45 kDa and 70 kDa fragments. Kind of assay: Inhibition of purified TG2 binding to FN by TG2-derived peptides (ELISA). The following applies: peptide 10 μM-1 mM, effect at higher concentrations. The method, then: 96-well Microtitre 96-well plates were coated overnight with either full length FN (5 μg/ml), its 45 kDa (54 μg/ml) or 70 kDa (45 μg/ml) fragments, in 50 mM Tris-HCl, pH 7.4 as previously described (Verderio et al., 2003b). Wells were blocked with 3% BSA (w/v) in TBS pH 7.6. After three washes with PBS pH7.4, competitive peptides diluted in PBS, 2 mM EDTA, pH 7.4 were added to the wells at concentrations from 10 μM-1 mM and incubated for 1 h at room temperature. Wells were washed three times with PBS pH7.4 and purified human recombinant TG2 was added at a final concentration of 2 μg/ml in the presence of the different concentrations of P2 or P2s peptides and incubated for 1 h at room temperature. After three washes with PBS pH7.4 bound TG2 was measured via ELISA as introduced above. […] The treated TG2 was then detected by the ELISA assay as described above.
Chain of human recombinant TG2 binding to FN and its 45 kDa and 70 kDa fragments (P02751 291-608 limits assumed): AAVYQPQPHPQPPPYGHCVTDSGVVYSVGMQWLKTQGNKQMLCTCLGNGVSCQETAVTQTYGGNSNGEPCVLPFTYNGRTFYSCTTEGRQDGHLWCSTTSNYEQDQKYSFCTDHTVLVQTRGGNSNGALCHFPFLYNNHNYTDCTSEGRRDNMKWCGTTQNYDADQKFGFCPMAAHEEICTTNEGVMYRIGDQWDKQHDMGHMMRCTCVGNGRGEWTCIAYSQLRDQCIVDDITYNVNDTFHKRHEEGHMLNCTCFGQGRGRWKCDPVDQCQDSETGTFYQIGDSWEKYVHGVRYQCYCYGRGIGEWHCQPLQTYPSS
(An ELISA detects its analyte on a solid surface through an enzyme-linked reagent.)

Take “AEELVLERCDLELE (listed as Homo sapiens) [P2, peptide corresponding to the N-terminal end of TG2]”: the “inhibition of wild type TG2 binding to FN and its 45 and 70 kDa fragments” value was “moderate but significant inhibition”. As for “EECRLAEELLEDVL (Scrambed Control Peptide) [P2s, scrambled P2 peptide, reference compound]”, the entry is “No effect”.

For the origin of these results see patent publication US9657110B2, “Polypeptides and use thereof” (ASTON UNIVERSITY, priority 2011, dated 2017).
